Data set [1] is described as follows: Drug degradation assessed as 4-[[9-[(2-fluoro-4-pyridyl)methyl]-10-oxo-9-anthryl]methyl]-1H-pyridin-2-one metabolite formation by measuring relative abundance measured after preserving compound for 6 months at 40 degreeC by LC-MS/MS analysis. As to conditions: 4383 h. The data set is classed as physicochemical.
The nature of data set [2]: Drug degradation in presence of 1% magnesium stearate and lactose monohydrate measured after preserving compound for 1 to 3 months at 40 degreeC by LC-MS/MS analysis. Type of data set: physicochemical. As to conditions: read-out: Drug degradation.
Data set [3] has as its target T1, Alanine racemase, biosynthetic (Escherichia coli K-12, UniProt P0A6B4). Put plainly: Substrate activity at Escherichia coli B alanine racemase assessed as (2S)-6-amino-2-(((Z)-1-carboxyallylideneamino)(3-hydroxy-2-methyl-5-(phosphonooxymethyl)pyridin-4-yl)methylamino)hexanoic acid adduct formation. The data set is classed as ADME.
In data set [4] the target is T1, Alanine racemase, biosynthetic. The data set can be described thus: Substrate activity at Escherichia coli B alanine racemase assessed as (S)-6-amino-2-((E)-1-carboxy-1-((E)-(3-hydroxy-2-methyl-5-(phosphonooxymethyl)pyridin-4-yl)methyleneamino)prop-1-en-2-ylamino)hexanoic acid formation. Type of data set: ADME.
The target is the same in data set [5]. Put plainly: Substrate activity at Escherichia coli B alanine racemase assessed as 2-oxobut-3-enoic acid formation. Type of data set: ADME.
Data set [6] in a line: Prodrug conversion in Sprague-Dawley rat assessed as acyclovir recovery in urine at 0.1 mmol/kg, po measured over 48 hrs by HPLC analysis. The data set is classed as ADME, organism-based. As to conditions: in vivo.
Data set [7] in a line: Drug metabolism assessed as first order rate constant for 6-formyltryptophan formation. Type of data set: physicochemical.
Data set [8] in a line: Half life in rat at 10 mg/kg, iv. Type of data set: ADME, organism-based. The following applies: in vivo.
A short description of data set [9]: Volume of distribution at steady state in Sprague-Dawley rat at 0.5 mg/kg, iv administered as single dose measured after 0.083 to 48 hrs. Type of data set: ADME, organism-based. As to conditions: in vivo, read-out: Vdss.
Data set [10] in a line: Volume of distribution at steady state in rhesus monkey at 0.1 mg/kg, iv administered as single dose measured after 0.083 to 48 hrs. Type of data set: ADME, organism-based, Macaca mulatta. The following applies: in vivo, read-out: Vdss.
Data set [11] in a line: Drug recovery in bile duct-cannulated Sprague-Dawley rat feces at 10 mg/kg, po administered as single dose using 14C labelled compound measured after 48 hrs. The data set is classed as ADME, organism-based. As to conditions: in vivo.
A short description of data set [12]: Lipophilicity, logD of the compound. Type of data set: physicochemical. As to conditions: octanol/water.
Data set [13] in a line: Drug recovery in bile duct-cannulated rhesus monkey feces at 10 mg/kg, po administered as single dose using 14C labelled compound measured after 96 hrs. The data set is classed as ADME, organism-based, Macaca mulatta. The following applies: in vivo.
Data set [14] in a line: Elimination half life in human at 25 to 1200 mg, po administered as suspension measured after 5 to 816 hrs by HPLC-MS/MS analysis. The following applies: in vivo, read-out: beta t1/2. Type of data set: ADME, organism-based.
Data set [15] in a line: Photodegradation of compound in deionized H20 at 10 uM by HPLC analysis. Type of data set: physicochemical. The following applies: deionized water.
Data set [16] can be described thus: Half life in human at 0.25 mg, iv administered as single dose measured up to 168 hrs. The following applies: in vivo. Type of data set: ADME, organism-based.
Data set [17] is described as follows: Volume of distribution in human at 0.25 mg, iv administered as single dose measured up to 168 hrs. Type of data set: ADME, organism-based. As to conditions: in vivo.
Data set [18] in a line: Oral bioavailability in human at 2 mg administered as single dose and measured up to 168 hrs. The data set is classed as ADME, organism-based. As to conditions: in vivo.
Another data set deals with T2, Cytochrome P450 2C8 (Homo sapiens, UniProt P10632).
T2 sequence (P10632 whole entry): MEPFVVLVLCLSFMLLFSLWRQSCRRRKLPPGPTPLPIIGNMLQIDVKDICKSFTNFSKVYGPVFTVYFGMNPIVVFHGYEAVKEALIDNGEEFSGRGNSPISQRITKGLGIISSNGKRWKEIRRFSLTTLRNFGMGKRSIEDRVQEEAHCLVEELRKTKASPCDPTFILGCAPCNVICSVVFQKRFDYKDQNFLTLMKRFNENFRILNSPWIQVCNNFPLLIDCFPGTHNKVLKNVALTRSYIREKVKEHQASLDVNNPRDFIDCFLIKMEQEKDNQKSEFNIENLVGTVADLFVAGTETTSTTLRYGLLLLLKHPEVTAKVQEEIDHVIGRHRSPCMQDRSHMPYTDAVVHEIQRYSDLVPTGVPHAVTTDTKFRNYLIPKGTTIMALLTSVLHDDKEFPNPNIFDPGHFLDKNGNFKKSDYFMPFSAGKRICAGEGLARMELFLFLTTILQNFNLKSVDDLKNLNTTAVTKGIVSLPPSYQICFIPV
The data set can be described thus: Inhibition of CYP2C8 (unknown origin) assessed as reduction in amodiaquine N-deethylation. Type of data set: ADME.

In a further data set the target is Cytochrome P450 2C9 (Homo sapiens, UniProt P11712). The data set can be described thus: Inhibition of CYP2C9 (unknown origin) assessed as reduction in diclofenac 4-hydroxylation. Type of data set: ADME.
Data set [19] in a line: Drug metabolism in human. The data set is classed as ADME. As to conditions: read-out: Drug metabolism.
For the next data set, the system named is Homo sapiens. The data set can be described thus: Induction of fluoride toxicity in human assessed as fluoride level in plasma at 200 mg, po BID administered for at least 6 months (reference value: 2.54 uM). The data set is classed as organism-based. As to conditions: in vivo.

In general, logD refers to lipophilicity at a set pH, counting ionised and neutral species. Broadly, the bioavailability is dose-corrected exposure relative to a reference, in per cent. In general, IC50 refers to the point on the concentration scale where inhibition reaches its midpoint.

T1 sequence (P0A6B4 whole entry): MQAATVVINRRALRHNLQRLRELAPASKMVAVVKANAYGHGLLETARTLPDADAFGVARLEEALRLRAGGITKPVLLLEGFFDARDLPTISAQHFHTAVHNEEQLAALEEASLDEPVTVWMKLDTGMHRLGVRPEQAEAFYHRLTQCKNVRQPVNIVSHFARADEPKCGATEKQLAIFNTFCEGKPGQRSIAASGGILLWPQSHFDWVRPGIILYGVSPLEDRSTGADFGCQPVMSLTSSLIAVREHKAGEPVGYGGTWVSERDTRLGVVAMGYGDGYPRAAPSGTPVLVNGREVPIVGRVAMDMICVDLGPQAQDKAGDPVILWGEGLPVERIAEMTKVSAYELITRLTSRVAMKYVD
Chain of Cytochrome P450 2C9 (P11712 whole entry): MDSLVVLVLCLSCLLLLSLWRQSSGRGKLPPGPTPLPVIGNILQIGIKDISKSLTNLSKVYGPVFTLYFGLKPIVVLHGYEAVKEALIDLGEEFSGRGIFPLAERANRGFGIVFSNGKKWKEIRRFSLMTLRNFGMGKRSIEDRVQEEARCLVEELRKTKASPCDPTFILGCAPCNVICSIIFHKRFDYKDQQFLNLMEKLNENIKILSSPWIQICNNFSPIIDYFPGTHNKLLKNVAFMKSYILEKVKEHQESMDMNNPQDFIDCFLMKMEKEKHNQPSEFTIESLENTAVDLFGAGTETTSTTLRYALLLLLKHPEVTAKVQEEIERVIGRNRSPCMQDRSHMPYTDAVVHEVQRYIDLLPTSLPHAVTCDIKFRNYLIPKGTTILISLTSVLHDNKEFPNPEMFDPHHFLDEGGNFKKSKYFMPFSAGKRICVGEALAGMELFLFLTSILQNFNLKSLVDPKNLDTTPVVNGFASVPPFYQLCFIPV

For `O=C1c2ccccc2C(Cc2ccnc(F)c2)(Cc2ccnc(F)c2)c2ccccc21`, in data set [1], the Activity was determined as 0.5%. Further, the degraded in data set [2] was less than 0.1%.
Consider `C=C=C(/N=C/c1c(COP(=O)(O)O)cnc(C)c1O)C(=O)O`, for which the Activity in [3] came to 31%; in data set [4], 12%; in data set [5], 57%.
For the molecule `CC(C)C(=O)OCCOCn1cnc2c(F)nc(N)nc21`, in [6], the Drug recovery is 51%.
With `N[C@@H](Cc1c[nH]c2cc(C(F)F)ccc12)C(=O)O`, the K in [7] was determined as 0.0039 min⁻¹.
`CCNC(C)Cc1cccc(SC(F)(F)F)c1` (racemic) [TIFLOREX] gave a half-life in [8] of 7.4 h.
As to `COc1cc(F)c(C(C)C)cc1-c1ccc(C(F)(F)F)cc1CN1C(=O)O[C@H](c2cc(C(F)(F)F)cc(C(F)(F)F)c2)[C@@H]1C` [ANACETRAPIB], the Vd in data set [9] turned out to be 1.1 L/kg; in data set [10] it was 0.3 L/kg. The figures for the Drug recovery in data set [11] and in data set [13] were 80% and 90%, respectively. For the same molecule, the log distribution coefficient (logD) in [12] amounted to 7.1.
For the molecule `Cc1cc(Nc2ccc(S(F)(F)(F)(F)F)cc2)n2nc(C(C)(F)F)nc2n1` [DSM-265], the half-life in [14] is 86 to 118 h.
Take `CNCCC(Oc1ccc(C(F)(F)F)cc1)c1ccccc1` (configuration not stated) [FLUOXETINE]: the half-life at 10 µM in [15] was 55.2 h.
Molecule `C[C@@H]1C[C@H]2[C@@H]3C[C@H](F)C4=CC(=O)C=C[C@]4(C)[C@@]3(F)[C@@H](O)C[C@]2(C)[C@@]1(OC(=O)c1ccco1)C(=O)SCF` [FLUTICASONE FUROATE] had a half-life in data set [16] of 15.3 h. The molecule further came in with a Vd in [17] of 642 L. For the same molecule, the bioavailability in data set [18] is 1.6%.
Regarding `Cc1ccc(NC(=O)C2(c3ccc4c(c3)OC(F)(F)O4)CC2)nc1-c1cccc(C(=O)O)c1` [LUMACAFTOR], the results for the IC50 on Cytochrome P450 2C8 and at Cytochrome P450 2C9 were 12 µM and 32 µM, respectively.
Take `FCOC(C(F)(F)F)C(F)(F)F` [SEVOFLURANE]: in data set [19], the metabolised lay within 2 to 5%.
In the case of `C[C@@H](c1ncncc1F)[C@](O)(Cn1cncn1)c1ccc(F)cc1F` [VORICONAZOLE], the Activity in the data set on Homo sapiens amounted to 14.32 µM.

The record behind these values is ChEMBL document CHEMBL4613261, “Metabolic and Pharmaceutical Aspects of Fluorinated Compounds” (J Med Chem, 2020).
